Measurements as given in ChEMBL document CHEMBL1139820, “Synthesis of new 7-chloroquinolinyl thioureas and their biological investigation as potential antimalarial and anticancer agents” (Bioorg Med Chem Lett, 2007).

Columns and labels:
Plasmodium falciparum = test: Antiplasmodial activity against chloroquine-sensitive Plasmodium falciparum D10 in LDH reporter assay after 48 hrs; format: functional, organism-based; details: D10, 48 h
HeLa = test: Cytotoxicity against human HeLa cells assessed as cell survival after 7 hrs by MTT assay; format: functional, cell-based
[1] = Selectivity index, Ratio of IC50 for human HeLa cells to IC50 for Plasmodium falciparum D10; format: functional

Question: With `NCCNC(=S)Nc1ccnc2cc(Cl)ccc12` as the compound, how does the IC50 (Plasmodium falciparum) read?
Answer: 3.3 µM

Question: What about the IC50 (HeLa) of the same compound?
Answer: 18 µM

Question: What about the “Ratio IC50” value [1] of the same compound?
Answer: 5.4581

Question: With `S=C(Nc1ccnc2cc(Cl)ccc12)N1CCNCC1` as the compound, how does the IC50 (Plasmodium falciparum) read?
Answer: > 3.26 µM

Question: Which results are given for `CCN(CC)CCCNC(=S)Nc1ccnc2cc(Cl)ccc12`?
Answer: IC50 (Plasmodium falciparum): 2.2 µM; IC50 (HeLa): 49.2 µM; Ratio IC50 [1]: 22.355

Question: What does the source list for `CN(C)CCCNC(=S)Nc1ccnc2cc(Cl)ccc12`?
Answer: IC50 (Plasmodium falciparum): 1.2 µM; IC50 (HeLa): 48.5 µM; Ratio IC50 [1]: 40.375

Question: With `CCSc1nnc(NC(=S)Nc2ccnc3cc(Cl)ccc23)s1` as the compound, how does the IC50 (Plasmodium falciparum) read?
Answer: > 2.62 µM

Question: Which IC50 (Plasmodium falciparum) does the source give for `CCN1CCN(C(=S)Nc2ccnc3cc(Cl)ccc23)CC1` here?
Answer: 1.8 µM

Question: What about the IC50 (HeLa) of the same compound?
Answer: > 50 µM

Question: What about the “Ratio IC50” value [1] of the same compound?
Answer: >27.77

Question: For `S=C(Nc1ccnc2cc(Cl)ccc12)N1CCN(c2ccccc2)CC1`, which IC50 (Plasmodium falciparum) is on record?
Answer: > 2.61 µM

Question: And the IC50 (HeLa)?
Answer: 43.6 µM

Question: Which IC50 (Plasmodium falciparum) does the source give for `CCOC(=O)N1CCN(C(=S)Nc2ccnc3cc(Cl)ccc23)CC1` here?
Answer: > 2.6 µM

Question: What about the IC50 (HeLa) of the same compound?
Answer: 40.1 µM

Question: With `OCCNC(=S)Nc1ccnc2cc(Cl)ccc12` as the compound, how does the IC50 (Plasmodium falciparum) read?
Answer: > 3.5 µM

Question: And the IC50 (HeLa)?
Answer: > 50 µM

Question: What about the “Ratio IC50” value [1] of the same compound?
Answer: >14.28

Question: With `S=C(Nc1ccnc2cc(Cl)ccc12)N1CCN(CC2CCCCC2)CC1` as the compound, how does the IC50 (Plasmodium falciparum) read?
Answer: > 2.4 µM

Question: What about the IC50 (HeLa) of the same compound?
Answer: > 50 µM

Question: And the “Ratio IC50” value [1]?
Answer: >20.83

Question: With `S=C(Nc1ccnc2cc(Cl)ccc12)N1CCN(Cc2ccccc2)CC1` as the compound, how does the IC50 (Plasmodium falciparum) read?
Answer: > 2.5 µM

Question: And the IC50 (HeLa)?
Answer: 28.9 µM

Question: For `CCN(CC)CCCC(C)Nc1ccnc2cc(Cl)ccc12` (configuration not stated) [CHLOROQUINE], which IC50 (HeLa) is on record?
Answer: 9.67 µM
